Consider three compounds from US20220362386A1, “LIQUID COMPOSITIONS COMPRISING A LEVODOPA AMINO ACID CONJUGATE AND USES THEREOF” (NeuroDerm, Ltd., priority 2019, published 2022).

Counter-ions that a name gives are not always drawn. Like-named read-outs stand apart in the source and are kept apart here. Non-standard residues stand in square brackets, D forms with d. Residues, ends and D or L forms follow the SMILES beside them. Dopa = N[C@@H](Cc1ccc(O)c(O)c1)C(=O)O

One data set can be described thus: physchem. Type of data set: physicochemical. On the procedure: The volume of the solution in the bottle was adjusted to 5 ml, either by adding solvent, or be removing any residual solution, after which the bottle was tightly closed and left at 25° C. for stability observation. It is noted that throughout Example 4, the concentrations in the tables below were calculated taking into account the amount of solvent added or the solution removed, in which event, the calculations were performed regarding the 5 ml+(amount removed) as the volume of the solution. It is further noted that throughout this document, unless mentioned otherwise, the stability was measured using the manual visual inspection Bosch apparatus MIH DX, at a magnification of ×1.75.
The LD-Tyr free base, prepared according to Example 2, was added to a solvent, as detailed in Table 7 below, and neutralized by addition of NaOH. When maximum solubility was observed, the solution was filtered and then transferred to a bottle that was previously weighed and flushed with nitrogen. The volume of the solution in the bottle was adjusted to 5 ml, after which the bottle was tightly closed and left at 25° C. for stability observation.
When maximum solubility was observed, the solution was filtered and then transferred to a bottle that was previously weighed and flushed with nitrogen. The volume of the solution in the bottle was adjusted to 5 ml, after which the bottle was tightly closed and left at 25° C. for stability observation.
(§1) When maximum solubility was observed, the solution was filtered and then transferred to a bottle that was previously weighed and flushed with nitrogen. The volume of the solution in the bottle was adjusted to 5 ml, after which the bottle was tightly closed and stored at 25° C. for stability observation.
as §1
LD-Lys TFA salt, prepared according to Example 1, and which comprises two equivalents of TFA, was added to a solvent, as detailed in Table 11 below, and neutralized by addition of NaOH. When maximum solubility was observed, the solution was filtered and then transferred to a bottle that was previously weighed and flushed with nitrogen. The volume of the solution in the bottle was adjusted to 5 ml, after which the bottle was tightly closed and stored at 25° C. for stability observation.
As detailed above regarding other solutions, with the LD-Tyr free base when maximum solubility was observed, the solution was filtered and then transferred to a bottle that was previously weighed and flushed with nitrogen. The volume of the solution in the bottle was adjusted to 5 ml, after which the bottle was tightly closed and left at 25° C. for stability observation.
LD-Lys HCl salt, prepared according to Example 3, was added to a solvent, as detailed in Table 13 below, and neutralized by the addition of NaOH. When maximum solubility was observed, the solution was filtered and then transferred to a bottle that was previously weighed and flushed with nitrogen. The volume of the solution in the bottle was adjusted to 5 ml, after which the bottle was tightly closed and left at 25° C. for stability observation.

A short description of the next data set: in vitro. The settings on record: human. Here is the method:
Caco-2 cells are human intestinal epithelial cells derived from a colorectal adenocarcinoma.
The assays are performed in both the apical to basolateral (A-B) and the B-A direction. The test compound is prepared at 10 μM in HBSS-HEPES (pH 7.4) with a final DMSO concentration of 1%. The working solution is centrifuged, and the supernatant is added to the donor side. The assay plate is incubated at 37° C. with gentle shaking for 60 min or 40 min for the A-B or B-A assay, respectively. For Pgp substrate assessment, the assays are run with and without 100 μM verapamil on both the A and B sides. For BCRP substrate assessment, the assays are run with and without 10 μM Ko143 on both the A and B sides. For MRP2 substrate assessment, the assays are run with and without 100 μM MK571 on both the A and B sides. Samples are aliquoted from the donor side at time zero and the end point, and from the receiver side at the end point.
Propranolol (highly permeable), labetalol (moderately permeable), ranitidine (poorly permeable), and colchicine (P-glycoprotein substrate), estrone-3-sulfate (BCRP substrate), or CDCF (MRP2 substrate) are included in each assay.
Samples are analyzed by HPLC-MS/MS using selected reaction monitoring. The HPLC system consists of a binary LC pump with an autosampler, a C-18 column, and a gradient. Conditions may be adjusted when necessary.
Fluorescein permeability is assessed in the A-B direction at pH 7.4 on both sides after the permeability assay with the test compound. The cell monolayer with a fluorescein permeability of less than 1.5×10−6 cm/s is considered intact.
The apparent permeability coefficient (Papp) of the test compound and its recovery are calculated as follows: […]
A is the surface area of the cell monolayer (0.11 cm^2). C is concentration of the test compound, expressed as peak area. D denotes donor and R is receiver. 0, mid, and end denote time zero, mid-point, and end of the incubation. Δt is the incubation time. V is the volume of the donor or receiver.
The permeability capabilities of the several LDAA compounds, in their TFA salt form, were determined using the Caco-2 B-A method.

The nature of data set [1]: In-vitro metabolism of LDAA compounds using liver microsomes. Type of data set: in vitro ADME, human. The following applies: for half-life at 0.1 μM: pH 7.4, 1.0E−07M, 0.1 mg/mL microsomal protein. On the procedure: The stability of test compounds in pooled human liver microsomes was determined on 96-well plates, wherein the test compounds were quantified at five time points by HPLC-MS/MS analysis. The assay matrix included mixed gender and a pool of 50 human liver microsomes, wherein the final microsomal protein concentration was 0.1 mg/mL. The test concentration was 0.1 μM with 0.01% DMSO, 0.25% acetonitrile and 0.25% methanol.
Each test compound was pre-incubated for five minutes with pooled liver microsomes in phosphate buffer (pH 7.4) in a 37° C. shaking water-bath. The reaction was initiated by adding a nicotinamide adenine dinucleotide phosphate (NADPH)-generating system and incubating for 0, 15, 30, 45, and 60 min. The reaction was stopped by transferring the incubation mixture to acetonitrile/methanol. Samples were then mixed and centrifuged, wherein the supernatants were used for HPLC-MS/MS analysis.
In each assay the four reference compounds propranolol, imipramine, verapamil and terfenadine were tested, wherein the propranolol and the imipramine are known to be relatively stable, while the verapamil and the terfenadine are known to be readily metabolized in human liver microsomes.
All samples were analyzed by HPLC-MS/MS using selected reaction monitoring. The HPLC system consisted of a binary LC pump with autosampler, a C-18 column, and a gradient. The conditions were adjusted when necessary.
Peak areas corresponding to the test compound were recorded. The amount of each compound remaining was calculated by comparing the peak area at each time point to time zero. The half-life is calculated from the slope of the initial linear range of the logarithmic curve of compound remaining (%) vs. time, assuming first order kinetics. In addition, the intrinsic clearance (Clint) was calculated from the half-life using the following equation:
Clint(μL/min/mg protein)=0.693/(t1/2×protein concentration)
The results of the in-vitro human liver microsome metabolism tests of various LDAA compounds (10^−7M), in their TFA salt forms, are provided in FIG. 1 and in Table 17, which presents the % of the compound remaining at times 0, 15, 30, 45 and 60 minutes, two half-life measurements and the Clint, calculated as detailed above.
On the technique in general: Microsomes from liver hold many membrane-bound enzymes, among them those of drug oxidation.

The next data set concerns P-gp. The data set is described as follows: In-vitro absorption, Caco-2 A-B permeability. Type of data set: in vitro ADME, human. The following applies: human, Caco-2, pH 7.4, with verapamil 100 μM on both the A and B sides, Caco-2 A-B, in the presence of verapamil. On the procedure: (§2) Conditions may be adjusted when necessary.
(§3) D denotes donor and R is receiver. […] V is the volume of the donor or receiver.
(§4) The test was performed with and without verapamil, which is a permeation inhibitor, and the results are presented in Tables 22 (without verapamil) and 34 (with verapamil).
(Passage across Caco-2 layers is used to estimate intestinal permeability.)

Data set [2] can be described thus: In-vitro absorption, Caco-2 A-B permeability. Format: in vitro ADME, human. The settings on record: human, Caco-2, pH 7.4, Caco-2 A-B, without verapamil; for Papp A→B at 60 min, 10 μM: 1.0E−05M. On the procedure: as §2, §3, §4
[3] abbreviates: solvent 0.63% CD solution, pH 7.71.
The mark [4] stands for this setting: incubation time 0 minutes, 1.0E−07M.
Where [5] appears, read: incubation time 15 minutes, 1.0E−07M.
Setting [6] is: incubation time 30 minutes, 1.0E−07M.
The mark [7] stands for this setting: incubation time 45 minutes, 1.0E−07M.
Setting [8] is: incubation time 60 minutes, 1.0E−07M.
Where [9] appears, read: read-out: Percent Recovery Mean.
Setting [10] is: solvent 0.75% CD solution, pH 8.65.

The thermodynamic solubility is solubility found after equilibrating the solid with the medium. Take `N=C(N)NCCC[C@H](NC(=O)[C@@H](N)Cc1ccc(O)c(O)c1)C(=O)O` [LD-Arg HCl salt]: the Appearance result in “physchem” (0.2% NaBis in WFI, pH 7.02, 550 mg/ml salt) is “clear”; in “physchem” (0.63% CD solution, pH 7.71, 520 mg/ml salt) it was “clear”; in the data set “physchem” (WFI, pH 7.3, 500 mg/ml salt), “clear”. Also, the solubility (thermodynamic) in “physchem” (25 °C, aqueous buffer, thermodynamic from solid, solvent 0.2% NaBis in WFI, pH 7.02) worked out at 550 mg/mL. Further, the “LD-Arg free base Concentration” value in the data set “physchem” (solvent 0.2% NaBis in WFI, pH 7.02) was determined as 440 mg/mL; in “physchem” (setting [3]), 420 mg/mL; in “physchem” (solvent WFI, pH 7.3) it was 390 mg/mL. Moreover, the “LD-Arg HCl salt concentration” value in the data set “physchem” (setting [3]) worked out at 520 mg/mL; in “physchem” (solvent WFI, pH 7.3), 500 mg/mL.
What is called Papp B→A is how fast a substance crosses the layer from the basolateral side. For orientation: half-life means the time needed for the level to fall by half in the phase considered. As a reminder, the microsomal CLint is the capacity of the preparation to metabolise the compound, expressed as a volume cleared per time. Regarding `N[C@@H](Cc1ccc(O)c(O)c1)C(=O)NCC(=O)O` [LD-Gly TFA salt, Levodopa Glycine TFA Salt], the recovery at 40 min, 10 μM in “in vitro” (Caco-2, pH 7.4, Percent Recovery 1st) worked out at 93%; in “in vitro” (Caco-2, pH 7.4, Percent Recovery 2nd), 78%; in the data set “in vitro” (Caco-2, pH 7.4, Percent Recovery Mean), 85%. Also, the Papp B→A at 40 min, 10 μM is 0.38 ×10⁻⁶ cm/s in “in vitro” (Caco-2, pH 7.4, Permeability 1st); 0.33 ×10⁻⁶ cm/s in “in vitro” (Caco-2, pH 7.4, Permeability 2nd); 0.4 ×10⁻⁶ cm/s in “in vitro” (Caco-2, pH 7.4, Permeability Mean). For the same compound, the half-life at 0.1 μM worked out at 54.5 min in data set [1] (both sexes, human, pooled human liver microsomes, read-out: Half-Life (minute) 1st); 54.1 min in data set [1] (both sexes, human, pooled human liver microsomes, read-out: Half-Life (minute) 2nd); 54 min in data set [1] (both sexes, human, pooled human liver microsomes, read-out: Half-Life (minute) Mean). Moreover, the microsomal CLint at 0.1 μM in data set [1] (both sexes, human, pooled human liver microsomes, pH 7.4, calculated from the half-life, 1.0E−07M) was 128 µL/min/mg. Also, the “% Compound Remaining 1st” value in data set [1] (setting [4]) is given as 100%; in data set [1] (setting [5]), 103.7%; in data set [1] (setting [6]), 86.7%; in data set [1] (setting [7]), 57.5%; in data set [1] (setting [8]) it was 51.7%. Besides, the “% Compound Remaining 2nd” value in data set [1] (setting [4]) was 100%; in data set [1] (setting [5]), 108.1%; in data set [1] (setting [6]) it was 77.9%; in data set [1] (setting [7]), 56.4%; in data set [1] (setting [8]) it was 52.9%. The “% Compound Remaining Mean” value in data set [1] (setting [4]) amounted to 100%; in data set [1] (setting [5]) it was 106%; in data set [1] (setting [6]), 82%; in data set [1] (setting [7]), 57%; in data set [1] (setting [8]) it was 52%. Besides, the recovery at 60 min, 10 μM in the data set with P-gp (read-out: Percent Recovery 1st) was determined as 60%; in the data set on P-gp (read-out: Percent Recovery 2nd) it was 59%; with P-gp (setting [9]), 59%; in data set [2] (read-out: Percent Recovery 1st), 65%; in data set [2] (read-out: Percent Recovery 2nd), 62%; in data set [2] (setting [9]) it was 64%. In addition, the Papp A→B at 60 min, 10 μM was found to be 0.03 ×10⁻⁶ cm/s in data set [2] (read-out: Permeability 1st) and 0.02 ×10⁻⁶ cm/s in data set [2] (read-out: Permeability 2nd).
In the case of `N[C@@H](Cc1ccc(O)c(O)c1)C(=O)N[C@@H](Cc1ccc(O)cc1)C(=O)O` [LD-Tyr HCl salt] (H-[Dopa]-Tyr-OH), the Appearance result in “physchem” (0.75% CD solution, pH 8.65, 297 mg/ml salt) is on record as “clear”; in “physchem” (WFI, pH 8.46, 300 mg/ml salt), “clear”. In addition, the “LD-Tyr HCl salt concentration” value in the data set “physchem” (setting [10]) turned out to be 297 mg/mL; in “physchem” (solvent WFI, pH 8.46), 300 mg/mL. Also, the “LD-Tyr free base Concentration” value was 257 mg/mL in “physchem” (setting [10]) and 260 mg/mL in the data set “physchem” (solvent WFI, pH 8.46).
